# Test results reported in patent US20210316003A1 (Immunomedics, Inc., priority 2020, published 2021).
# “And” between values parts separate entries of the source, which are not always exact repeats. Equal values may be shown once.
# Assays:
# patients with mSCLC [1] = conditions: in vivo
# Description: Doses of 8 or 10 mg/kg were given on days 1 and 8 of a 21-day cycle, with contingencies to delay (maximum of 2 weeks). Toxicities were managed by supportive hematopoietic growth-factor therapy for blood cell reduction, dose delays and/or modification as specified in the protocol (e.g., 25% of prior dose), or by standard medical practice. Treatment was continued until disease progression, initiation of alternative anticancer therapy, unacceptable toxicity, or withdrawal of consent.
# Safety evaluations were conducted during scheduled visits or more frequently if warranted.
# Statistical Analyses—The data included in the analyses were derived from patients enrolled from November 2013 to June 2016, with follow-up through Jan. […] The frequency and severity of adverse events (AEs) were defined by MedDRA Preferred Term and System Organ Class (SOC) version 10, with severity assessed by NCI-CTCAE v4.03.
# TNBC xenografts = conditions: nude mice bearing TNBC xenografts, independent of BRCA1/2 mutation status; cited from earlier work
# [2] = In vivo animal studies: release of SN-38 from the conjugate
# Description: Plasma CEA and CA19-9 correlated with responses.
# patients with mSCLC [3] = conditions: 53 mSCLC patients (Gray et al., 2017); cited from earlier work
# [4] = test system: patients with non-small cell lung cancer (NSCLC); conditions: cited from earlier work
# patients with mSCLC [5] = test: Phase I/II trial (NCT01631552), mSCLC: efficacy by RECIST 1.1; type: in vivo, human
# Description: Patients ≥18 years of age with mSCLC who had relapsed or were refractory to at least one prior standard line of therapy for stage IV metastatic disease, and with measurable tumors by CT, were enrolled. […] Previous therapy had to be completed at least 4 weeks before enrollment.
# The primary endpoint was the proportion of patients with a confirmed objective response, assessed approximately every 8 weeks until disease progression, by each institution's radiology group or a contracted local radiology service. Objective responses were assessed by Response Evaluation Criteria in Solid Tumors, version 1.1 (RECIST 1.1) (Eisenhauer et al., 2009, Eur J Cancer 45:228-47). Partial (PR) or complete responses (CR) required confirmation within 4 to 6 weeks after the initial response. Clinical benefit rate (CBR) is defined as those patients with an objective response plus stable disease (SD) ≥4 months. Survival was monitored every 3 months until death or withdrawal of consent.
# The protocol provided that objective response rates (ORR) were determined for patients who received ≥2 doses (1 cycle) and had their initial 8-week CT assessment. Duration of response is defined in accordance to RECIST 1.1 criteria, with those having an objective response marked from time of the first evidence of response until progression, while stable disease duration is marked from the start of treatment until progression. PFS and OS were defined from the start of treatment until an objective assessment of progression was determined (PFS) or death (OS). Duration of response, PFS, and OS were estimated by Kaplan-Meier methods, with 95% confidence intervals (CI), using MedCalc Statistical Software, version 16.4.3 (Ostend, Belgium).
# [6] = SG as ≥3 line, no prior topotecan/irinotecan (N = 9)
# [7] = SG as ≥3 line, prior topotecan/irinotecan (N = 15)
# [8] = prior immune checkpoint inhibitor
substance,measurement,setting,value
sacituzumab govitecan,"Anemia, grade 3 or 4",patients with mSCLC [1],8%
same,"Diarrhea, grade 3 or 4",patients with mSCLC [1],9%
same,"Fatigue, grade 3 or 4",patients with mSCLC [1],13%
same,"Hyponatremia, grade 3 or 4",patients with mSCLC [1],8%
same,"Increased alkaline phosphatase, grade 3 or 4",patients with mSCLC [1],8%
same,Infusion-related reactions,patients with mSCLC [1],No infusion-related reactions were reported
same,"Neutropenia, grade 3 or 4",patients with mSCLC [1],34%
same,Patients with dose reduction,patients with mSCLC [1]; 8 mg/kg,13%
same,"Tumor growth in combination with olaparib, rucaparib and talazoparib",TNBC xenografts,Synthetic lethality and synergistic inhibition of tumor growth
same,SN-38 released from the conjugate daily,[2],50%
same,Median OS,patients with mSCLC [3],7.5 months
same,Median PFS,patients with mSCLC [3],3.7 months
same,Median response duration,patients with mSCLC [3],5.7 months
same,ORR,patients with mSCLC [3],14%
same,Patients with tumor shrinkage from baseline,patients with mSCLC [3],Sixty
same,ORR,"[4]; 47 response assessable patients, median of three prior therapies",19%
same,Clinical benefit rate,[4]; 47 response assessable patients,43%
same,Median OS,[4],9.5 months
same,Median PFS,[4],5.2 months
same,"Duration of SD in ten patients with SD ≥4 months, Kaplan-Meier-derived median",patients with mSCLC [5],5.6 months
same,Median OS for the seven confirmed PR patients,patients with mSCLC [5],9.2 months
same,Median OS for the ten patients with SD ≥4 months,patients with mSCLC [5],8.3 months
same,Confirmed PR,"patients with mSCLC [5]; 8 mg/kg starting dose, thirteen patients",8%
same,Confirmed PR,patients with mSCLC [5]; 10 mg/kg starting dose (N = 30),20%
same,CBR (clinical benefit rate),"patients with mSCLC [5]; 10 mg/kg starting dose, 14/30",47%
same,Patients with a reduction of tumor size from baseline,patients with mSCLC [5]; 21 of 43 CT-assessable patients,49%
same,"Stable disease (SD), including unconfirmed PR",patients with mSCLC [5]; 21 of 43 assessable patients,49%
same,"PD, %",patients with mSCLC [5]; 43 with response assessment,(35%)
same,"Duration of confirmed objective response, median",patients with mSCLC [5]; Kaplan-Meier,5.7 months
same,"Clinical benefit rate (PR + SD ≥ 4 months), %",patients with mSCLC [5]; SG as second line (N = 19),(37%)
same,"OS, median",patients with mSCLC [5]; SG as second line (N = 19),8.1 months
same,"PFS, median",patients with mSCLC [5]; SG as second line (N = 19),3.6 months
same,"Clinical benefit rate (PR + SD ≥ 4 months), %",patients with mSCLC [5]; SG as ≥3 line (N = 24),(38%)
same,"OS, median",patients with mSCLC [5]; SG as ≥3 line (N = 24),7.0 months
same,"PFS, median",patients with mSCLC [5]; SG as ≥3 line (N = 24),3.7 months
same,"Clinical benefit rate (PR + SD ≥ 4 months), %",patients with mSCLC [5]; [6],(33%)
same,"OS, median",patients with mSCLC [5]; [6],5.5 months
same,"PFS, median",patients with mSCLC [5]; [6],3.7 months
same,"Clinical benefit rate (PR + SD ≥ 4 months), %",patients with mSCLC [5]; [7],(40%)
same,"OS, median",patients with mSCLC [5]; [7],8.8 months
same,"PFS, median",patients with mSCLC [5]; [7],3.8 months and 3.6 months
same,"Overall survival, median",patients with mSCLC [5]; intention-to-treat N = 53,7.0 months
same,"Progression-free survival, median",patients with mSCLC [5]; intention-to-treat N = 53,3.6 months
same,"Tumor shrinkage (SD lasting 8.7 months), single patient",patients with mSCLC [5]; [8],17%
same,"Tumor shrinkage on first assessment (unconfirmed PR), single patient",patients with mSCLC [5]; [8],54%
same,"Clinical benefit rate (PR + SD ≥ 4 months), %",patients with mSCLC [5]; resistant (N = 19) to 1st line,(26%)
same,"OS, median",patients with mSCLC [5]; resistant (N = 19) to 1st line,6.2 months
same,"PFS, median",patients with mSCLC [5]; resistant (N = 19) to 1st line,3.6 months
same,Confirmed PR,"patients with mSCLC [5]; resistant to first-line platinum, nineteen patients",16%
same,PR,"patients with mSCLC [5]; second-line setting, 3/19",16%
same,"Clinical benefit rate (PR + SD ≥ 4 months), %",patients with mSCLC [5]; sensitive (N = 24) to 1st line,(50%)
same,"OS, median",patients with mSCLC [5]; sensitive (N = 24) to 1st line,8.3 months
same,"PFS, median",patients with mSCLC [5]; sensitive (N = 24) to 1st line,3.8 months
same,Confirmed PR,"patients with mSCLC [5]; sensitive to first-line platinum, 24 patients",17%
same,Median time to response,patients with mSCLC [5]; seven confirmed PR,2.0 months
same,Median PFS for the confirmed PR group,patients with mSCLC [5]; seven patients,7.9 months
same,Confirmed PR,patients with mSCLC [5]; third or higher line (N = 24),16%
